According to US8877889B2, “Tumor cell-killing peptides” (Industry-Academic Cooperation Foundation, Chosun University, priority 2009, dated 2014):
Entries after “also recorded” stand apart in the source; their conditions may differ.

Assays:
Assay type in all cases: cell-based
[1] = system: HeLa cells; assay: Peptide-induced cell death, counting dead and survived cells under the light microscope; conditions: peptides 10 μM, 20 μM, 30 μM, 10 minutes after treatment (FIG. 1B, 3A)
Experimental: (B) HeLa cells were treated with DMSO or the indicated peptides in increasing doses (10 μM, 20 μM, and 30 μM). % of cell death was determined at 10 minutes after treatment by counting the dead cells and survived cells under the light microscope.
(E) HeLa cells were transfected with substitution mutants of MTD peptide.
HeLa cells were treated with DMSO or with the indicated peptides at increasing doses (10 μM, 20 μM, or 30 μM). % cell death was determined 10 minutes after treatment by counting the dead cells and survived cells (300 cells per sample) under the light microscope.
(D) HeLa cells were treated with indicated amounts of MTD peptide for 1 hour, 2 hours, or 5 hours. % cell death was calculated by counting the dead cells and survived cells (200 to 500 cells per sample) under the light microscope. Data represent the means±SD of three independent experiments.

[2] = system: NCI-H460 cells; assay: Peptide-induced cell death in NCI-H460 cells; conditions: 5 μM, 2 or 5 hours (FIG. 3C)
Experimental: (C) NCI-H460 cells were treated with indicated peptides for 2 hours or 5 hours. % cell death was determined as described above.

[3] = system: HeLa cells; assay: Measurement of intracellular calcium with Fluo-4-AM; conditions: 3 μM peptide
Experimental: (A-C) HeLa cells were loaded with 3 μM Fluo-4-AM for 30 minutes and then treated with 3 μM of indicated peptides (A: MTD, B: MTDmt3, C: MTDmt5). Fluorescence images and bright-field images were obtained with the laser scanning confocal microscope at 5-second intervals for 5 minutes. Relative fluorescence intensities (F/F0) at two region-of-interests (ROI 1 and 2) were measured at 5-second intervals for 5 minutes.
(E-G) HeLa cells were pretreated in calcium free KRB media alone (E), in KRB media with 10 μM 2-APB and 20 μM Ryanodine (F), or in KRB media with freshly made 30 μM CsA (G) for 2 hours. HeLa cells were then loaded with 3 μM Fluo-4-AM for 30 minutes and treated with 3 μM of MTD peptide. Images were obtained with the laser scanning confocal microscope at 5-second intervals for 5 minutes. Relative fluorescence intensities (F/F0) at two region-of-interests (ROI 1 and 2) were measured at 5-second intervals for 5 minutes.
For Ca^2+ measurements in the cytosol, HeLa cells were cultured in an Lab-Tek™ Chamber glass slide and loaded with Fluo-4-AM (Fluo-4-acetoxymethyl ester) at a final concentration of 3 μM for 30 minutes, followed by washing with PBS (Phosphate buffered saline) at pH 7.4 and the addition of fresh Ca^2+-free Krebs-ringer modified buffer (KRB: 125 mM NaCl, 5 mM KCl, 1 mM Na3PO4, 1 mM MgSO4, 5.5 mM glucose, and 20 mM HEPES, pH 7.4, at 37° C.) containing the indicated peptides. Time-lapse images were obtained at 488 nm excitation with the Argon laser scanning confocal microscope (Leica TCS SP5 Microsystems, Mannheim, Germany) at 10-second intervals for 5 minutes to visualize Fluo-4-AM.

[4] = system: HeLa cells; assay: Cell death after transfection of Noxa constructs, counting EGFP-positive dead cells; conditions: for cell death after over-expression: within 11 hrs after transfection (FIG. 1D); for cell death-inducing activity of leucine substitution mutants 4Lmt, 5Lmt: HeLa cells transfected (FIG. 8A); for cell death-inducing activity of Noxa point mutants: 20 hours after transfection (FIG. 3B)
Experimental: (D) HeLa cells were transfected with deletion mutants of Noxa. At 11 hrs, 24 hrs, and 36 hrs after transfection, cell death was determined by counting EGFP-positive dead cells with morphological changes using the fluorescent microscope.
(B) HeLa cells were transfected with WT or with the indicated Noxa mutants. 20 hours after transfection cell death was determined by counting the EGFP-positive dead and survived cells under the fluorescent microscope.
(A) HeLa cells were transfected with either WT Noxa, 4Lmt (L42A, L43A, L45A, L49A), or 5Lmt (L29A, L42A, L43A, L45A, L49A) constructs. At the indicated times after transfection, cell death was determined by counting the EGFP-positive dead cells with morphological changes under the fluorescent microscope.
HeLa cells were transfected with EGFP-Noxa WT and 41-54 in combination with Bcl-2 expression plasmid or in the presence of zVAD-fmk (25 μM). 18 hours after transfection, cell death was determined by counting EGFP-positive dead cells with morphological changes using the fluorescent microscope. Data represent an average±SD of three experiments each with 200 total cells counted.
The percentage of cell death was determined by counting EGFP-positive dead cells with morphology using the fluorescent microscope. Minimally, 300 cells in three separate fields were counted for each measurement.

[5] = system: HeLa cells; assay: Mitochondrial localization of Noxa mutants, confocal microscopy; conditions: confocal microscopic image analysis
Excerpt: (B) HeLa cells were co-transfected with the pDsRed2-Mito and either Noxa 4Lmt or Noxa 5Lmt. 18 hrs after transfection the mitochondrial morphology was observed under the laser confocal microscope.

[6] = system: HeLa cells; assay: Caspase activation, western blot of cell lysates; conditions: 5 μM peptide
Experimental: (E) After treatment with the MTD peptide, MTDmt4, or MTDmt5 (5 μM) in HeLa cells, cell lysates were prepared at indicated times. Equal amounts of proteins were subjected to the SDS-PAGE and blotted onto PVDF membrane. After blocked with 5% nonfat milk in TBST (10 mM Tris-HCl, pH 7.5, 100 mM NaCl and 0.1% Tween-20), the membrane was probed with anti-caspase-3 (SantaCruz Biotechnology, Inc., Santa Cruz, Calif., USA), anti-caspase-8 (Cell signaling technology, Beverly, Mass., USA), anti-caspase-9 (SantaCruz Biotechnology, Inc., Santa Cruz, Calif.), anti-XIAP (Upstate Biotechnology, Dundee, United Kingdom), or anti-Bid (home-made) antibodies. Anti-actin antibody (Chemicon International, Inc., Temecula, Calif., USA) was used as equal loading control.

[7] = system: CT26 mouse colon carcinoma cells; assay: Tumor cell killing activity, bright field images; conditions: 10 μM peptide (FIG. 9A)
Experimental: (A) CT26 cells were treated with 10 μM MTD, TU1:MTD, TU2:MTD, or TU3:MTD peptides, and bright field images for indicated peptides were obtained at indicated time points. Representative images of at least 3 individual experiments were presented.

[8] = system: HeLa cells; assay: Live cell images and annexin V / SYTOX Green staining of dying cells; conditions: MTD peptide 10 μM or TRAIL 100 ng/ml (FIG. 2A, 7A, 7B)
Experimental: (A) HeLa cells were treated with MTD peptides (10 μM), or TRAIL (100 ng/ml). Images were taken at the indicated times (upper panel). Jurkat cells were treated with MTD peptide (10 μM) for 10 minutes, cells were processed for TEM. Images were obtained with 4,000× magnification (lower panel). N: nucleus, M: mitochondrion.
(D) HeLa cells were treated with the MTD (5 μM) peptide with or without the pretreatment of 10 μM BAPTA-AM for 2 hours. Live cell images were serially acquired at 10-second intervals for 10 minutes and shown at the indicated times.
(A) HeLa cells were stained with FITC-conjugated Annexin V antibody at 10 minutes after DMSO or MTD treatment. Images were obtained under the confocal microscope.
(B) HeLa cells were stained with SYTOX Green 10 minutes after DMSO or MTD treatment. Images were obtained using confocal microscope.

With “RRRRRRRRGRQKLLNAASKLF (PTD-MTDmt3 fusion peptide derived from Homo sapiens)” the “cell death-inducing activity (% of cell death)” value [1] was “completely lost their cell death-inducing activities; also recorded: no cell death”, the “susceptibility of cells to peptide” value [2] was “not” and the “cytosolic calcium level change” value [3] was “did not induce changes in the cytosolic calcium level”.

In the case of “21-40: Noxa deletion mutant containing only the BH3 domain (LEVECATQLRRFGDKLNFRQ; UniProt Q13794 21-40, looked up, fragment)”, the “cell death-inducing activity after over-expression, with increasing time” value ([4]; HeLa cells, 24 hrs and 36 hrs after transfection (FIG. 1D)) is reported as “strong cell death-inducing activity”, the “membrane morphology of transfected cells” value ([4]; HeLa cells, data not shown) is reported as “membrane blebbings” and the “cell death after over-expression” value ([4]; HeLa cells) is reported as “induced little cell death within 11 hrs”.

“L42A (MPGKKARKNAQPSPARAPAELEVECATQLRRFGDKLNFRQKALNLISKLFCSGT; UniProt Q13794 1-54, looked up, variant L42A)” was tested, and the mitochondrial localization [5] was “maintained the typical mitochondrial localization of Noxa”.

For “4Lmt: Noxa mutant with L42A, L43A, L45A and L49A (MPGKKARKNAQPSPARAPAELEVECATQLRRFGDKLNFRQKAANAISKAFCSGT; UniProt Q13794 1-54, looked up, variant L42A L43A L45A L49A)”, the mitochondrial localization [5] was “loss of Noxa mitochondrial localization” and the “cell death-inducing activity of leucine substitution mutants 4Lmt, 5Lmt” value [4] was “almost completely lost all of the cell death-inducing activity”.

For “L29A: Noxa single substitution in the BH3 domain (MPGKKARKNAQPSPARAPAELEVECATQARRFGDKLNFRQKLLNLISKLFCSGT; UniProt Q13794 1-54, looked up, variant L29A)”, the “cell death-inducing activity of Noxa point mutants” value ([4]; HeLa cells) was “remarkably reduced the cell death-inducing activities”.

“L45A (MPGKKARKNAQPSPARAPAELEVECATQLRRFGDKLNFRQKLLNAISKLFCSGT; UniProt Q13794 1-54, looked up, variant L45A)” was tested, and the mitochondrial localization [5] was “maintained the typical mitochondrial localization of Noxa” and the “cell death-inducing activity of Noxa point mutants” value ([4]; HeLa cells) was “remarkably reduced the cell death-inducing activities”.

With “1-30: Noxa deletion mutant which did not contain any domains (MPGKKARKNAQPSPARAPAELEVECATQLR; UniProt Q13794 1-30, looked up, fragment)” the “cell death after over-expression” value ([4]; HeLa cells) was “no effect on cell death”.

In the case of “5Lmt: Noxa mutant with L29A, L42A, L43A, L45A and L49A (MPGKKARKNAQPSPARAPAELEVECATQARRFGDKLNFRQKAANAISKAFCSGT; UniProt Q13794 1-54, looked up, variant L29A L42A L43A L45A L49A)”, the mitochondrial localization [5] is reported as “loss of Noxa mitochondrial localization” and the “cell death-inducing activity of leucine substitution mutants 4Lmt, 5Lmt” value [4] is reported as “almost completely lost all of the cell death-inducing activity”.

“L49A (MPGKKARKNAQPSPARAPAELEVECATQLRRFGDKLNFRQKLLNLISKAFCSGT; UniProt Q13794 1-54, looked up, variant L49A)” was tested, and the mitochondrial localization [5] was “maintained the typical mitochondrial localization of Noxa” and the “cell death-inducing activity of Noxa point mutants” value ([4]; HeLa cells) was “remarkably reduced the cell death-inducing activities”.

“L43A (MPGKKARKNAQPSPARAPAELEVECATQLRRFGDKLNFRQKLANLISKLFCSGT; UniProt Q13794 1-54, looked up, variant L43A)” was tested, and the mitochondrial localization [5] was “maintained the typical mitochondrial localization of Noxa”.

In the case of “3Lmt: Noxa triple substitution L45A, L49A and L29A (MPGKKARKNAQPSPARAPAELEVECATQARRFGDKLNFRQKLLNAISKAFCSGT; UniProt Q13794 1-54, looked up, variant L29A L45A L49A)”, the “cell death-inducing activity of Noxa point mutants” value ([4]; HeLa cells) is reported as “remarkably reduced the cell death-inducing activities”.

In the case of “RRRRRRRRGRQKLLNLIAALF (PTD-MTDmt4 fusion peptide derived from Homo sapiens)”, the “cell death-inducing activity (% of cell death)” value [1] is reported as “maintaining the killing activity” and the caspase activation [6] is reported as “not activated”.

CNGRCGGKLLNLISKLF [TU1:MTD] was tested, and the “tumor cell killing activity” value [7] was “no or little killing activity”.

B1: TRAIL (protein, UniProt P50591 1-281, looked up)
Tumor necrosis factor ligand …: MAMMEVQGGPSLGQTCVLIVIFTVLLQSLCVAVTYVYFTNELKQMQDKYSKSGIACFLKEDDSYWDPNDEESMNSPCWQVKWQLRQLVRKMILRTSEETISTVQEKQQNISPLVRERGPQRVAAHITGTRGRSNTLSSPNSKNEKALGRKINSWESSRSGHSFLSNLHLRNGELVIHEKGFYYIYSQTYFRFQEEIKENTKNDKQMVQYIYKYTSYPDPILLMKSARNSCWSKDAEYGLYSIYQGGIFELKENDRIFVSVTNEHLIDMDHEASFFGAFLVG
notes: apoptosis inducer used at 100 ng/ml for comparison
With B1 the “morphology of dying cells” value [8] was “membrane shrinkage of apoptotic cells”.
